Test results reported in patent US20210106566A1, “PHARMACEUTICAL COMPOSITION FOR TREATING AND/OR PREVENTING PERIPHERAL NEUROPATHY OR SPINAL CORD INJURY” (NATIONAL UNIVERSITY CORPORATION NAGOYA UNIVERSITY, priority 2015, published 2021).

Experiments:
[1] = tested on: mouse sciatic nerve autologous transplantation model; experiment: Mouse sciatic nerve autologous transplantation model: tibialis anterior muscle cross sections; assay type: in vivo; conditions: 30 mg/kg/day, 8 weeks after surgery
From the text: Adult male C57BL/6J mice (8 weeks old; 19.5-22.0 g) were purchased from Charles River. The mice were anesthetized with isoflurane and underwent gluteal muscle incision under a sterile condition to expose the sciatic nerve in the left leg. The sciatic nerve was cut at the following two sites (1) and (2): (1) the site 3 mm distal to the first bifurcation of biceps femoris (hereinafter referred to as proximal transection site) (2) the site 3 mm distal to the proximal transection site (hereinafter referred to as distal transection site) The excised nerve segment with a length of 3 mm was confirmed to be completely cut at the two sites. The perineurium was sutured with nylon thread (10-0 black) at the proximal transection site and the distal transection site under a microscope. The remaining thread was used as a marker for finding the nerve transection site in the sacrifice of the mice. In order to reduce DMSO toxicity, a solution of 60 mg/mL zonisamide in 100% DMSO was prepared and the solution was diluted in olive oil to give a solution of 3 mg/mL zonisamide in 5% DMSO. […] Myelin sheath formation in the sciatic nerve was analyzed in six mice in each group. […] The number and area of myelinated axons in the sciatic nerve were manually measured using ImageJ software in a blinded fashion. […]

[2] = tested on: mouse sciatic nerve autologous transplantation model; experiment: Mouse sciatic nerve autologous transplantation model: walking track analysis (SFI); assay type: in vivo; conditions: 30 mg/kg/day, 6 to 8 weeks after surgery
From the text: Adult male C57BL/6J mice (8 weeks old; 19.5-22.0 g) were purchased from Charles River. The mice were anesthetized with isoflurane and underwent gluteal muscle incision under a sterile condition to expose the sciatic nerve in the left leg. The sciatic nerve was cut at the following two sites (1) and (2): (1) the site 3 mm distal to the first bifurcation of biceps femoris (hereinafter referred to as proximal transection site) (2) the site 3 mm distal to the proximal transection site (hereinafter referred to as distal transection site) The excised nerve segment with a length of 3 mm was confirmed to be completely cut at the two sites. […] Myelin sheath formation in the sciatic nerve was analyzed in six mice in each group. […] The number and area of myelinated axons in the sciatic nerve were manually measured using ImageJ software in a blinded fashion. Motor function was assessed every week in three mice in each group using the walking track analysis. In the walking track analysis, footprints of both hindlimbs were recorded when mice were allowed to walk freely on a runway. Sciatic function index (SFI; Bain et al. Plast Reconstr Surg 83: 129-138 (1989)) was calculated by measuring the width and length of footprints of both legs in a blinded fashion. […] Footprints were recorded on six to eight thin boards.

JNK1/2/3 = experiment: Western blot of JNK1/2/3 phosphorylation in primary motor neurons; assay type: cell-based, mouse
Experimental: (§1) Zonisamide (0, 10, or 20 μmol/L) was added to primary motor neurons 4 hours after the beginning of culture. The cells were rinsed with a buffer (50 mmol/L HEPES pH 7.0, 150 mmol/L NaCl, 1% glycerol, 1% TritonX-100, 1.5 mmol/L MgCl2, 1 mmol/L EGTA, 100 mmol/L NaF, 10 mmol/L sodium pyrophosphate, […], 1 mmol/L PMSF, and 1 mmol/L sodium orthovanadate (V)) at days 2 and 3. Total protein was dissolved in 1× Laemmli buffer, separated on a 10% SDS polyacrylamide gel, and transferred to a polyvinylidene fluoride membrane (Immobilon-P, Millipore). The membrane was washed with Tris-buffered physiological saline with 0.05% Tween 20 (TBS-T) and blocked with TBS-T containing 3% skim milk at room temperature for 1 hour. The membrane was incubated with any of anti-Erk1/2 (#4696, Cell Signaling), anti-phosphorylated Erk1/2 (#4370, Cell Signaling), or anti-phosphorylated JNK1/2/3 (#4668, Cell Signaling) antibody (diluted at 1:1000) at 4° C. overnight. The membrane was washed with TBS-T for 10 minutes three times and incubated with […] secondary antibody conjugated to horseradish peroxidase (HRP, GE Healthcare, 1:6000) at room temperature for 1 hour. The blot was detected with Amersham ECL Western blotting detection reagent (GE Healthcare) and quantified with ImageJ program (http://imagej.nih.gov/ij/index.html).

Erk1/2 = experiment: Western blot of Erk1/2 phosphorylation in primary motor neurons; assay type: cell-based, mouse; conditions: primary motor neurons, 0, 10, or 20 μmol/L, days 2 and 3
Experimental: as §1

Structure (SMILES): NS(=O)(=O)Cc1noc2ccccc12 [Zonisamide, 3-sulfamoylmethyl-1,2-benzisoxazole]
- denervation atrophy of tibialis anterior muscle (cross-sectional area of muscle fibers) [1]: promoted recovery from denervation atrophy
- SFI (sciatic function index), motor function of hindlimbs [2]: dramatically improved
- phosphorylation level of JNK1/2/3 (JNK1/2/3): did not affect
- Erk1/2 phosphorylation (Erk1/2): suppress
